From publication PMC11149917, “Translational and Therapeutic Evaluation of RAS-GTP Inhibition by RMC-6236 in RAS-Driven Cancers” (Cancer Discovery, 2024)
pEC50: −log10 of the molar value. Like-named read-outs stand apart in the source and are kept apart here.

Experiments:
[1] = tested on: DUSP6 mRNA in human tumors; assay: PK/PD model scaled to humans
From the text: Tumor growth was modeled using the approach previously described by Simeoni and colleagues ([45]). As detailed previously, tumor volume data were collected from mice bearing either NCI-H441 or Capan-2 xenograft tumors in 28-day efficacy studies (Supplementary Table S9). Estimated intrinsic tumor growth parameters include initial tumor volume, W0, which was set to the observed initial tumor volume, and the exponential and linear growth rates constants, λ0 and λ1, which were estimated from vehicle-treated animal tumor growth. Drug-specific parameters include a measure of drug potency, k2, and a transfer rate constant, k1, which describes cell death kinetics. A tumor stasis concentration threshold (CT) was calculated as λ0/k2 and converted to a human equivalent by adjusting for species differences in blood-plasma partitioning and plasma protein binding as discussed in Supplementary Methods. Human PK parameters were predicted via multispecies allometric scaling or assigned as the preclinical average and used to simulate mean steady-state human exposure at various dose levels.
The mouse PK/PD model was scaled to humans by incorporating human-specific plasma protein binding, blood–plasma partitioning, and estimated human blood PK parameters. The tumor partitioning rate constants were held constant from the mouse model under the assumption that RMC-6236 will partition similarly from free plasma into human-derived xenografts or clinical tumor tissue. Similarly, parameters governing DUSP6 expression were kept the same and assumed to reflect a similarly sensitive tumor in humans. Human simulations were conducted for multiple clinical dose levels using mean PK parameters and assuming an average body weight of 70 kg.

Plasma protein binding = format: in vitro ADME; settings: mouse, mice
[2] = tested on: panel of 78 cancer cell lines; assay: Cell panel 3D methylcellulose CellTiter-Glo proliferation; format: cell-based; settings: Homo sapiens
Protocol: A panel of 78 cancer cell lines harboring mutant and wild-type RAS was selected for screening at Crown Bioscience (Supplementary Table S2). The panel consisted of cell lines with any substitution at position 12 of KRAS, cell lines with any substitutions at position 61 of NRAS, and cell lines with a BRAF^V600E mutation. […] Cells were incubated for 120 hours prior to measurement of adenosine triphosphate (ATP) levels using the CellTiter-Glo Luminescent Cell Viability Assay (CTG; Promega, G7572), a method of determining the number of metabolically active cells based on quantitation of cellular ATP, according to the manufacturer's instructions. To measure induction of apoptosis, cells were incubated with RMC-6236 for 48 hours prior to measuring cleavage of a proluminescent caspase-3/7 DEVD-aminoluciferin substrate using the CaspaseGlo-3/7 Assay (Promega, G8092) according to the manufacturer’s instructions.

**Q.** For `CCn1c(-c2cc(N3CCN(C)CC3)cnc2[C@H](C)OC)c2c3cc(ccc31)-c1csc(n1)C[C@H](NC(=O)[C@H]1C[C@@H]1C)C(=O)N1CCC[C@H](N1)C(=O)OCC(C)(C)C2` [RMC-6236], which Ka ([1]; Human Predictions) is on record?
**A.** 2 h⁻¹

**Q.** What about the V/F ([1]; Human Predictions) of the same compound?
**A.** 10.83 L/kg

**Q.** And the “estimated maximal DUSP6 suppression in human tumors” value ([1]; daily dose of approximately 100 mg, steady state, transient)?
**A.** ≥ 90%

**Q.** What about the “estimated mean DUSP6 suppression in human tumors” value ([1]; daily dose of approximately 300 mg, across the dosing interval at steady state) of the same compound?
**A.** ≥ 90%

**Q.** What about the fraction unbound (Plasma protein binding) of the same compound?
**A.** 0.011

**Q.** What about the pEC50 ([2]; A549, A549, KRAS G12S, Lung, read-out: Proliferation Inhibition (EC50)) of the same compound?
**A.** 7.26

**Q.** What about the pEC50 ([2]; A-375, A375, BRAF V600E, Skin, read-out: Proliferation Inhibition (EC50)) of the same compound?
**A.** < 7.00

**Q.** And the pEC50 ([2]; A-427, A427, KRAS G12D, Lung, read-out: Proliferation Inhibition (EC50))?
**A.** 7.01

**Q.** And the pEC50 ([2]; AGS, KRAS G12D, Stomach, read-out: Proliferation Inhibition (EC50))?
**A.** 8.49

**Q.** And the pEC50 ([2]; ASH3, NRAS Q61R, Head and Neck/Thyroid, read-out: Proliferation Inhibition (EC50))?
**A.** 7.04

**Q.** What about the pEC50 ([2]; ASPC1, ASPC1, KRAS G12D, Pancreas, read-out: Proliferation Inhibition (EC50)) of the same compound?
**A.** 8.16

**Q.** What about the pEC50 ([2]; CAL-62, CAL62, KRAS G12R, Head and Neck/Thyroid, read-out: Proliferation Inhibition (EC50)) of the same compound?
**A.** 7.72

**Q.** And the pEC50 ([2]; CAPAN-1, CAPAN1, KRAS G12V, Pancreas, read-out: Proliferation Inhibition (EC50))?
**A.** 8.34

**Q.** What about the pEC50 ([2]; CFPAC-1, CFPAC1, KRAS G12V, Pancreas, read-out: Proliferation Inhibition (EC50)) of the same compound?
**A.** 7.82

**Q.** What about the pEC50 ([2]; CHP-212, CHP212, NRAS Q61K, Brain and Nerves, read-out: Proliferation Inhibition (EC50)) of the same compound?
**A.** 7.66

**Q.** And the pEC50 ([2]; COLO 201, COLO201, BRAF V600E, Intestine/Large/Colorectum, read-out: Proliferation Inhibition (EC50))?
**A.** < 7.00

**Q.** What about the pEC50 ([2]; COR-L23, CORL23, KRAS G12V, Lung, read-out: Proliferation Inhibition (EC50)) of the same compound?
**A.** 8.07

**Q.** And the pEC50 ([2]; Calu-1, CALU1, KRAS G12C, Lung, read-out: Proliferation Inhibition (EC50))?
**A.** 8.68

**Q.** And the pEC50 ([2]; Capan-2, CAPAN2, KRAS G12V, Pancreas, read-out: Proliferation Inhibition (EC50))?
**A.** 8.24

**Q.** And the pEC50 ([2]; CoC1, COC1, KRAS G12D, Ovary, read-out: Proliferation Inhibition (EC50))?
**A.** 7.24

**Q.** And the pEC50 ([2]; HCC15, HCC15, NRAS Q61K, Lung, read-out: Proliferation Inhibition (EC50))?
**A.** < 7.00

**Q.** What about the pEC50 ([2]; HCC44, HCC44, KRAS G12C, Lung, read-out: Proliferation Inhibition (EC50)) of the same compound?
**A.** 8.48

**Q.** And the pEC50 ([2]; HEC-1-A, HEC1A, KRAS G12D, Uterus, read-out: Proliferation Inhibition (EC50))?
**A.** 7.35

**Q.** What about the pEC50 ([2]; HM7, KRAS G12D, Intestine/Large/Colorectum, read-out: Proliferation Inhibition (EC50)) of the same compound?
**A.** < 7.00

**Q.** And the pEC50 ([2]; HPAC, KRAS G12D, Pancreas, read-out: Proliferation Inhibition (EC50))?
**A.** 7.13

**Q.** And the pEC50 ([2]; HPAF-II, HPAFII, KRAS G12D, Pancreas, read-out: Proliferation Inhibition (EC50))?
**A.** 8.20

**Q.** And the pEC50 ([2]; HT-1080, HT1080, NRAS Q61K, Soft tissue, read-out: Proliferation Inhibition (EC50))?
**A.** 8.12

**Q.** What about the pEC50 ([2]; HepG2, HEPG2, NRAS Q61L, Liver, read-out: Proliferation Inhibition (EC50)) of the same compound?
**A.** 7.64

**Q.** And the pEC50 ([2]; HuCCT-1, HUCCT1, KRAS G12D, Liver/Bile duct, read-out: Proliferation Inhibition (EC50))?
**A.** 7.59

**Q.** And the pEC50 ([2]; HuP-T4, HUPT4, KRAS G12V, Pancreas, read-out: Proliferation Inhibition (EC50))?
**A.** 7.72

**Q.** And the pEC50 ([2]; KP4, KRAS G12D, Pancreas, read-out: Proliferation Inhibition (EC50))?
**A.** 7.51

**Q.** What about the pEC50 ([2]; KRAS^G12X cells, read-out: median EC50, cell growth inhibition) of the same compound?
**A.** 8.10

**Q.** What about the pEC50 ([2]; KYSE-410, KYSE410, KRAS G12C, HN/Esophagus, read-out: Proliferation Inhibition (EC50)) of the same compound?
**A.** 7.20

**Q.** What about the pEC50 ([2]; LCLC-97TM1, LCLC97TM1, KRAS G12V, Lung, read-out: Proliferation Inhibition (EC50)) of the same compound?
**A.** 8.96

**Q.** What about the pEC50 ([2]; LS174T, KRAS G12D, Intestine/Large/Colorectum, read-out: Proliferation Inhibition (EC50)) of the same compound?
**A.** < 7.00

**Q.** What about the pEC50 ([2]; LS180, LS180, KRAS G12D, Intestine/Large/Colorectum, read-out: Proliferation Inhibition (EC50)) of the same compound?
**A.** 7.06

**Q.** What about the pEC50 ([2]; LS-123, LS123, KRAS G12S, Intestine/Large/Colorectum, read-out: Proliferation Inhibition (EC50)) of the same compound?
**A.** 8.42

**Q.** And the pEC50 ([2]; LS-513, LS513, KRAS G12D, Intestine/Large/Colorectum, read-out: Proliferation Inhibition (EC50))?
**A.** 8.15

**Q.** And the pEC50 ([2]; MIA PaCa-2, MIAPACA2, KRAS G12C, Pancreas, read-out: Proliferation Inhibition (EC50))?
**A.** 7.21

**Q.** And the pEC50 ([2]; NCI-H23, NCIH23, KRAS G12C, Lung, read-out: Proliferation Inhibition (EC50))?
**A.** 8.15

**Q.** And the pEC50 ([2]; NCI-H358, NCIH358, KRAS G12C, Lung, read-out: Proliferation Inhibition (EC50))?
**A.** 8.41

**Q.** And the pEC50 ([2]; NCI-H441, NCIH441, KRAS G12V, Lung, read-out: Proliferation Inhibition (EC50))?
**A.** 8.59

**Q.** And the pEC50 ([2]; NCI-H727, NCIH727, KRAS G12V, Lung, read-out: Proliferation Inhibition (EC50))?
**A.** 8.38

**Q.** What about the pEC50 ([2]; NCI-H1299, NCIH1299, NRAS Q61K, Lung, read-out: Proliferation Inhibition (EC50)) of the same compound?
**A.** 7.58
